# Test results reported in US9212163B2, “Pesticidal compositions and processes related thereto” (Dow AgroSciences LLC, priority 2012, dated 2015).
# Experiments:
# [1] = system: Beet Armyworm (BAW) (Spodoptera exigua); test: Bioassay on Beet Armyworm (BAW), 128-well diet tray assay; assay type: in vivo; conditions: for pest or weed control at 50 µg/cm2, 50 µg/cm2 / pest or weed control at 50 µg/cm2: Spodoptera exigua, read-out: BAW Rating; for pest or weed control at 50 µg/cm2, 50 µg/cm2: 168 h, % mortality, second instar larvae, 50 μg/cm^2 on artificial diet, 25° C., five to seven days, average of eight wells; for pest or weed control at 50 µg/cm2: Table 5: Prophetic Compounds Subsequently Exemplified; for BAW Rating: Table 3: Assay Results Part 1
# Procedure, shortened: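 Artificial diet treated with 50 μg/cm^2 compound in 90:10 acetone-water was dried, then one to five second-instar larvae were placed per well, eight wells per compound. Trays were held at 25° C., 14:10 light-dark for five to seven days, and percent mortality averaged across wells.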
# [2] = system: Cabbage Looper (CL) (Trichoplusia ni); test: Bioassay on Cabbage Looper (CL), 128-well diet tray assay; assay type: in vivo; conditions: read-out: CL Rating; for pest or weed control at 50 µg/cm2, 50 µg/cm2: 168 h, % mortality, second instar larvae, 50 μg/cm^2 on artificial diet, 25° C., five to seven days, average of eight wells; for pest or weed control at 50 µg/cm2: Table 5: Prophetic Compounds Subsequently Exemplified
# Method: Certain molecules disclosed in this document were tested against BAW, CEW and CL using procedures described in the following examples. In the reporting of the results, the “BAW & CEW & CL Rating Table” was used (See Table Section).
# Bioassays on CL (Trichoplusia ni)
# Bioassays on CL were conducted using a 128-well diet tray assay. One to five second instar CL larvae were placed in each well (3 mL) of the diet tray that had been previously filled with 1 mL of artificial diet to which 50 μg/cm^2 of the test compound (dissolved in 50 μL of 90:10 acetone-water mixture) had been applied (to each of eight wells) and then allowed to dry. Trays were covered with a clear self-adhesive cover, and held at 25° C., 14:10 light-dark for five to seven days. Percent mortality was recorded for the larvae in each well; activity in the eight wells was then averaged. The results are indicated in the table entitled “Table 4: Assay Results Part 2” (See Table Section).
SMILES,"pest or weed control at 50 µg/cm2, 50 µg/cm2 [1]","pest or weed control at 50 µg/cm2, 50 µg/cm2 [2]",pest or weed control at 50 µg/cm2 [1],pest or weed control at 50 µg/cm2 [2],BAW Rating [1]
"O=C(NC1(C(=O)NCC(F)(F)F)CC1)c1ccc(/C=C/[C@H](c2cc(Cl)c(Cl)c(Cl)c2)C(F)(F)F)cc1C(F)(F)F (single isomer, unassigned) [Compound F8A]",50 to 100%,50 to 100%,–,–,–
"O=C(NC1(C(=O)NCC(F)(F)F)CC1)c1ccc(/C=C/[C@@H](c2cc(Cl)c(Cl)c(Cl)c2)C(F)(F)F)cc1C(F)(F)F (single isomer, unassigned) [Compound F8B]",50 to 100%,50 to 100%,–,–,–
Cc1cc(/C=C/C(c2cc(Cl)c(Cl)c(Cl)c2)C(F)(F)F)ccc1C(=O)NC1(C(=O)NCC(F)(F)F)CC1 (stereo not drawn) [Compound F2],50 to 100%,50 to 100%,–,–,–
O=C(NC1(C(=O)NCC(F)(F)F)CC1)c1ccc(/C=C/C(c2cc(Cl)c(Cl)c(Cl)c2)C(F)(F)F)cc1Br (stereo not drawn) [Compound F3],50 to 100%,50 to 100%,–,–,–
O=C(NC1(C(=O)NCC(F)(F)F)CCC1)c1ccc(/C=C/C(c2cc(Cl)c(Cl)c(Cl)c2)C(F)(F)F)cc1Cl (stereo not drawn) [Compound F4],50 to 100%,50 to 100%,–,–,–
O=C(NC1(C(=O)NCC(F)(F)F)CCC1)c1ccc(/C=C/C(c2cc(Cl)c(Cl)c(Cl)c2)C(F)(F)F)cc1Br (stereo not drawn) [Compound F5],50 to 100%,50 to 100%,–,–,–
"O=C(NC1(C(=S)NCC(F)(F)F)CC1)c1ccc(/C=C/C(c2cc(Cl)c(Cl)c(Cl)c2)C(F)(F)F)cc1C(F)(F)F (stereo not drawn) [Compound F6, (E)-4-(4,4,4-Trifluoro-3-(3,4,5-trichlorophenyl)but-1-enyl)-N-(1-(2,2,2-trifluoroethylcarbamothioyl)cyclopropyl)-2-(trifluoromethyl)benzamide]",50 to 100%,50 to 100%,–,–,–
"N#CC1(NC(=O)c2ccc(/C=C/C(c3cc(Cl)c(Cl)c(Cl)c3)C(F)(F)F)cc2Br)CC1 (stereo not drawn) [Compound F7, (E)-2-Bromo-N-(1-cyanocyclopropyl)-4-(4,4,4-trifluoro-3-(3,4,5-trichlorophenyl)but-1-en-1-yl)benzamide]",50 to 100%,50 to 100%,–,–,–
O=C(NC1(C(=O)NCC(F)(F)F)CC1)c1ccc(/C=C/C(c2cc(Cl)c(Cl)c(Cl)c2)C(F)(F)F)cc1Cl (stereo not drawn) [Compound F8],50 to 100%,50 to 100%,–,–,–
O=C(NC1CC1(F)F)c1ccc(/C=C/C(c2cc(Cl)c(Cl)c(Cl)c2)C(F)(F)F)cc1Br (stereo not drawn) [Compound P31],–,–,50 to 100%,50 to 100%,–
O=C(NC1(C(=O)NCC(F)(F)F)CC1)c1ccc(/C=C/C(c2ccc(F)c(F)c2F)C(F)(F)F)cc1C(F)(F)F (stereo not drawn) [Compound P65],–,–,50 to 100%,50 to 100%,–
O=C(NC1(C(=O)NCC(F)(F)F)CC1)c1ccc(/C=C/C(c2cc(Cl)c(Cl)cc2Cl)C(F)(F)F)cc1Br (stereo not drawn) [Compound P108],–,–,50 to 100%,50 to 100%,–
O=C(NC1(C(=O)NCC(F)(F)F)CC1)c1ccc(/C=C/C(c2cc(Cl)c(Cl)cc2Cl)C(F)(F)F)cc1C(F)(F)F (stereo not drawn) [Compound P110],–,–,50 to 100%,50 to 100%,–
O=C(NC1(C(=O)NCC(F)(F)F)CC1)c1ccc(/C=C/C(c2cccc(OC(F)(F)F)c2)C(F)(F)F)cc1Br (stereo not drawn) [Compound P153],–,–,50 to 100%,50 to 100%,–
"C/C(=C\C(c1cc(Cl)cc(Cl)c1)C(F)(F)F)c1ccc(-n2cncn2)cc1 (stereo not drawn) [DC68, (E)-1-(4-(4-(3,5-Dichlorophenyl)-5,5,5-trifluoropent-2-en-2-yl)phenyl)-1H-1,2,4-triazole]",–,–,–,–,A (50-100)
"COC(/C=C/c1ccc(-n2cncn2)cc1)(c1cc(Cl)cc(Cl)c1)C(F)(F)F (stereo not drawn) [DC70, (E)-1-(4-(3-(3,5-Dichlorophenyl)-4,4,4-trifluoro-3-methoxybut-1-en-1-yl)phenyl)-1H-1,2,4-triazole]",–,–,–,–,A (50-100)
